Data as given in patent publication US20230256095A1, “DYES FOR USE IN A METHOD OF TREATMENT OF VITREOUS OPACITY-RELATED DISEASES” (UNIVERSITEIT GENT, priority 2020, published 2023).

Key:
human vitreous opacities = assay: Photo-ablation of human vitreous opacities obtained after vitrectomy; conditions: 0.5 mg/ml
[1] = tested on: immortalized human Müller cells (MIO-M1); assay: MTT toxicity assay on Müller cells; format: cell-based
Experimental: MIO-M1 cells were cultured in DMEM Glutamax medium (Thermo Fisher Scientific, Waltham, USA). The medium contained 10% foetal bovine serum (FBS) (Thermo Fisher Scientific, Waltham, USA), 100 IU/ml penicillin (Gibco®-Invitrogen life technologies, Walthan, USA), 100 μg/ml streptomycin (Gibco®-Invitrogen life technologies, Walthan, USA) and 2 mM L-Glutamin (Gibco®-Invitrogen life technologies, Walthan, USA). Before use, the medium was passed through a 0.2 μm PES membrane vacuum filter (VWR, Radnor, USA). The cells were plated in polystyrene cell culture flasks (surface=75 cm^2) (VWR, Radnor, USA) and placed in the incubator (37° C., 5% CO2) (Thermo Fisher Scientific, Waltham, USA) until confluence was reached (i.e. the cells forming a monolayer covering 80%-90% of the culture flask). The morphology was checked by microscopy (VWR, Radnor, USA). After reaching the confluence (more or less after 5 days) and checking the morphology, cells were split in new culture flasks. […]
To test the toxicity of free and nano-encapsulated ICG, we wanted to seed 7,000 Müller cells in each well of a 96-well plate (VWR, Radnor, USA). The cells were counted with a Bürker counting chamber (BRAND, Wertheim, Germany) to obtain the proper number of cells. […] The non-coloured cells were counted in 6 big squares (3 on each side of the chamber); each big square contained 0.1 μL mixture. […]

type I collagen fibers = molecular target: T1, type I collagen fibers (Rattus norvegicus, UniProt P02454+P02466); assay: Photo-ablation of artificial floaters with nanosecond laser
T1 construct: type I collagen from the rat tail; purchased GIBCO; host or cells: rat tail (tissue-derived)
Experimental: Collagen fibers were prepared from type I collagen from the rat tail (GIBCO; concentration of 3 mg/ml) as described in Sauvage et al., 2019, ACS Nano, 13, 8401-8416. 5 ml of PBS was pipetted in a 15 ml falcon tube. 330 μL of the PBS solution was replaced by 330 μL collagen type I and the solution was vortexed. Sodium hydroxide (0.1 M) (VWR, Radnor, USA) was added to the acid solution of collagen to adjust pH to 7.4. The solution was vortexed again and placed for one hour in the incubator at 37° C. The final concentration of the collagen was 0.2 mg/ml.
First, dark-field microscopy imaging was performed to locate and align the nanosecond laser (Opolette HE 355 LD, OPOTEK Inc., CA, USA) on the artificial collagen fibers in the sample. Samples of either artificial or human opacities treated with TB, ICG and ICG nanoparticles were then illuminated with the laser (<7 ns). The wavelength of the laser light was 561 nm and the energy was set at ±800 μJ. A beam expander (#GBE05-A, Thorlabs) combined with iris diaphragm (#D37SZ, Thorlabs) were used to adjust the diameter of the laser beam to 150 μm (so that 800 μJ corresponded to a laser fluence of 4.5 J/cm^2). The laser pulse energy was monitored by an energy meter (J-25 MB-HE&LE, Energy Max-USB/RS sensors, Coherent) synchronized with the pulsed-laser. The set-up was made in such way to illuminate the sample shot by shot. Videos of the sample were made during illumination with NIS software. Same experiments were performed with human opacities Comparison Between Free ICG, PAH-ICG NPs and HSA-ICG NPs in Water and Bovine Vitreous.

collagen fibers [2] = molecular target: T2, collagen fibers (Rattus norvegicus, UniProt P02454+P02466); assay: In vivo laser photo-ablation of intravitreally injected collagen fibers; parameters: species or system rabbit
T2 construct: host or cells: exogenous fibres injected into the vitreous of New Zealand White rabbits
From the text: (§1) A total of 24 New Zealand White rabbits (age 3-6 months; weight 2.45-3.15 kg; both genders) were used. The rabbits were randomly divided into 7 groups: a control group A treated with laser only (n=3), group B received an intravitreal (IVIT) injection of ICG (n=9), group C received an IVIT injection of ICG labeled collagen fibers (n=3), group D was IVIT injected with collagen fibers followed by an IVIT injection of ICG (n=3), group E was IVIT injected with HA-AuNPs labeled floaters (n=3), and group F was IVIT injected with floaters followed by an IVIT injection of HA-AuNPs (n=3). During the in vivo experiments, animal conditions such as mucous membrane color, heart rate, body heat, and respiratory rate were monitored every 15 minutes. The animals were anesthetized by intramuscular injection of ketamine (40 mg/kg) and xylazine (5 mg/kg). A drop of tropicamide (1%) and phenylephrine hydrochloride (2.5%) was applied into the rabbit eyes to dilate their pupils at 15 min before the imaging procedures. For topical anaesthesia, a drop of topical tetracaine (0.5%) was used. To avoid corneal dehydration during the experiment, a lubricant solution (Systane, Alcon Inc., TX, USA) was added into the eye every minute using a syringe with plastic needle. To maintain the anaesthesia, a dose of ketamine (13 mg/kg) was injected every 45 min. The animal's body heat was maintained using a circulation heat blanket.
First, to visualize the retina of the rabbit eyes, a plastic contact lens was placed on the cornea. When the target location in the vitreous was selected under the microscope, the rabbits under anaesthesia were subsequently intravitreally injected. The intravitreal injections were performed using a 27 gauge needle. […] The position of the fibers was monitored by OCT so that the intravitreal injection of ICG could be performed close the area where the fibers were located. […]
Before laser treatment, the rabbit's eyes were imaged by PAM and OCT (see section above). […] Also, rabbit's vital signs were monitored and recorded until the animals fully recovered from anaesthesia.

[3] = In vivo clearance of intravitreally injected ICG from the vitreous (fundus imaging); parameters: species or system rabbit
From the text: as §1
First, to visualize the retina of the rabbit eyes, a plastic contact lens was placed on the cornea. When the target location in the vitreous was selected under the microscope, the rabbits under anaesthesia were subsequently intravitreally injected. The intravitreal injections were performed using a 27 gauge needle. In one series of experiments 40 μL of ICG-fibers (which are collagen fibers treated with ICG) was injected; the concentration of collagen in the dispersions was 0.02 mg/mL. In another series of experiments, 40 μL of collagen fibers (0.02 mg/mL) were intravitreally injected. 5 days after the injection of the fibers, ICG (0.25-1.25 mg/ml) was injected in the vitreous (40 μl). The position of the fibers was monitored by OCT so that the intravitreal injection of ICG could be performed close the area where the fibers were located. Three days after the injection of ICG, laser treatment was performed.
The rabbits were monitored one minute after intravitreal injection of the collagen fibers and at day 4 post intravitreal injection of ICG. Rabbits intravitreally injected with ICG only were followed up for 14 days post injection. The rabbit eyes were assessed by color fundus photography, fluorescence imaging, optical coherence tomography (OCT) and photoacoustic microscopy (PAM), as discussed below. The rabbit's head and body were positioned in two different platforms to minimize breathing and other motion artifacts. The same scanning areas for PAM- and OCT-imaging were monitored by the fundus camera which was integrated in the OCT system. To detect the photoacoustic signal, the ultrasound transducer was placed in contact with the conjunctiva, allowing it to move freely in 3D while not applying any physical pressure on the rabbit eyes. […]
Color fundus photography was performed using a 50-degree color fundus photography system (Topcon 50EX, Topcon Corporation, Tokyo, Japan). […] Fluorescence imaging was done with the Topcon 50EX system using appropriate excitation and emission filters.

[4] = In vivo safety evaluation of treated eyes; parameters: species or system rabbit
From the text: Before laser treatment, the rabbit's eyes were imaged by PAM and OCT (see section above). For laser treatment, anesthetized rabbits were kept on a custom-built stabilization platform. After acquiring the images and locating the opacities (collagen fibers) by OCT, areas in the eyes (4.5×4.5 mm^2) were illuminated with laser pulses (<7 ns; 1.9 J/cm^2) NT-242, Ekspla, Lithuania) of 800 nm (ICG) to destroy the collagen fibers; the step size of the scanning laser was 9 μm, the beam size equaled 20 μm. During the treatment, real-time OCT was active to monitor the position of the collagen fibers. The 4.5×4.5 mm^2 area was laser scanned several times (3-7 times) until the collagen fibers were completely destroyed. After the laser treatment, PAM and fundus images were performed to evaluate the potential damage of retinal vessels. Also, rabbit's vital signs were monitored and recorded until the animals fully recovered from anaesthesia.
Treated eyes were ophthalmologically evaluated immediately after the laser treatment and followed up for 1 month. Anterior segment structures such as the eyelids, iris, conjunctiva, cornea, anterior chamber and lens were comprehensively examined using slit lamp bio-microscopy (SL120, Carl Zeiss, Germany). In addition, posterior segment structures (i.e., the vitreous, optic nerve and retina) were assessed using a contact fundus lens (Volk Optical Inc, Mentor, Ohio, USA).

collagen fibers [5] = molecular target: T2, collagen fibers; assay: In vivo binding of intravitreally injected ICG to collagen fibers (PAM/OCT/fundus imaging); parameters: species or system rabbit
From the text: A total of 24 New Zealand White rabbits (age 3-6 months; weight 2.45-3.15 kg; both genders) were used. The rabbits were randomly divided into 7 groups: a control group A treated with laser only (n=3), group B received an intravitreal (IVIT) injection of ICG (n=9), group C received an IVIT injection of ICG labeled collagen fibers (n=3), group D was IVIT injected with collagen fibers followed by an IVIT injection of ICG (n=3), group E was IVIT injected with HA-AuNPs labeled floaters (n=3), and group F was IVIT injected with floaters followed by an IVIT injection of HA-AuNPs (n=3). During the in vivo experiments, animal conditions such as mucous membrane color, heart rate, body heat, and respiratory rate were monitored every 15 minutes. […]
First, to visualize the retina of the rabbit eyes, a plastic contact lens was placed on the cornea. […] The position of the fibers was monitored by OCT so that the intravitreal injection of ICG could be performed close the area where the fibers were located. […]
The rabbits were monitored one minute after intravitreal injection of the collagen fibers and at day 4 post intravitreal injection of ICG. […] The rabbit eyes were assessed by color fundus photography, fluorescence imaging, optical coherence tomography (OCT) and photoacoustic microscopy (PAM), as discussed below. […]

[6] = eyes treated with laser with ICG

T1 sequence (P02454 152-1207 limits assumed): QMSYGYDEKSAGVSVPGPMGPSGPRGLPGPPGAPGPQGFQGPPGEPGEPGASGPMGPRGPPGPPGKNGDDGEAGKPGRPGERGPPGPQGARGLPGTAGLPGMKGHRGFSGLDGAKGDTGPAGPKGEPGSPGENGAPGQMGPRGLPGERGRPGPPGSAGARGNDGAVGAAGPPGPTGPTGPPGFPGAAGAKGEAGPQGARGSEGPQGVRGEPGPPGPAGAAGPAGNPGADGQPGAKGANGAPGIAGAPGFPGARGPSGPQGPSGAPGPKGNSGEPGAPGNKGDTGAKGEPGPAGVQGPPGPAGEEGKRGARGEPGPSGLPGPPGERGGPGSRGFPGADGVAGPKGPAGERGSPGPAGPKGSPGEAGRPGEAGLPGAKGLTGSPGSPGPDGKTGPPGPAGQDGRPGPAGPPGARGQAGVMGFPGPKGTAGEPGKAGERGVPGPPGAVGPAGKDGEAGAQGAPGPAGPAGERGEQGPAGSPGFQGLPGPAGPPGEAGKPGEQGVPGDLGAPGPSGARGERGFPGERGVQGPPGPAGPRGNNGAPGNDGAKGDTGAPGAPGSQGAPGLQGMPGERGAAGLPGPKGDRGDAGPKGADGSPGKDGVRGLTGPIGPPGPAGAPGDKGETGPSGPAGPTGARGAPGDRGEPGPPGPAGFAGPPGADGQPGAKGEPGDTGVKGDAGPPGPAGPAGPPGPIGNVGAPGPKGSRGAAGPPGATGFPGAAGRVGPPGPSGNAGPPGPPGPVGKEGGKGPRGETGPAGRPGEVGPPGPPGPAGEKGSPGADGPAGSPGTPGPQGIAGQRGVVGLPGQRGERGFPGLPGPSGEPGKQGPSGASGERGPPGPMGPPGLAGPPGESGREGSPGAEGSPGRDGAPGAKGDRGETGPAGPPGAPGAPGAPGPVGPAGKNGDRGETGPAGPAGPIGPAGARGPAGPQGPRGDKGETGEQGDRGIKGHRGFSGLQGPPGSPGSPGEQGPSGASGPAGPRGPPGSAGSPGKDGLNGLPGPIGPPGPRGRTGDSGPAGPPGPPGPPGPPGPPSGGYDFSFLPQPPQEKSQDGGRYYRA
T1 sequence (P02466 86-1125 limits assumed): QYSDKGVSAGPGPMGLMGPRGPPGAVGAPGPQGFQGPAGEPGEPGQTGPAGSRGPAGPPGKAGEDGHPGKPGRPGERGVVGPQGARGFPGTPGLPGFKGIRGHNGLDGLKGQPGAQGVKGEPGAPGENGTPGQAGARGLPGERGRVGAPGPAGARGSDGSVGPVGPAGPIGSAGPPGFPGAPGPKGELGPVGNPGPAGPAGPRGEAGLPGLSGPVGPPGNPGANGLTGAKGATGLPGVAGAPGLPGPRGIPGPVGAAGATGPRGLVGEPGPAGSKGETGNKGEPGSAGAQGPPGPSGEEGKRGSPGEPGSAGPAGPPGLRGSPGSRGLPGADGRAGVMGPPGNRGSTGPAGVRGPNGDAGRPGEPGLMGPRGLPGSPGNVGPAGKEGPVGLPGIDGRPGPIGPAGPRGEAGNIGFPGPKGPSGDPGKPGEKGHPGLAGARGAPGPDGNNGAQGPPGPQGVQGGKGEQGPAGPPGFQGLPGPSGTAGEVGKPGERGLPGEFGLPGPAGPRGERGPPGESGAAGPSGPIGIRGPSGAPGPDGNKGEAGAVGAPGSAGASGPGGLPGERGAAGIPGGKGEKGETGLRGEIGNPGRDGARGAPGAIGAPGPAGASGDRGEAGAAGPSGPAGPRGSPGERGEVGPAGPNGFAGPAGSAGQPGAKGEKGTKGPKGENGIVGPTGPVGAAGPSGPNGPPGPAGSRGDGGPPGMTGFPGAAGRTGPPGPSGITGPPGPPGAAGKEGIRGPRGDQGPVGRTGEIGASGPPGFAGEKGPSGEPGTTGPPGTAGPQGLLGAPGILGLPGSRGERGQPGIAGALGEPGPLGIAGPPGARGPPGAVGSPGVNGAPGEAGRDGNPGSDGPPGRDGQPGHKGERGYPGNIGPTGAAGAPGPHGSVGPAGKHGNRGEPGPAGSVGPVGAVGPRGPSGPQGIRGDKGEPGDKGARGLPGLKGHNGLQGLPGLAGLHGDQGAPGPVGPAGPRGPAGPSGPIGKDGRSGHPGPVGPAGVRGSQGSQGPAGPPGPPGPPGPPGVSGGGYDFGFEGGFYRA
T2 sequence (P02454 152-1207 limits assumed): as the sequence (P02454 152-1207 limits assumed) above
T2 sequence (P02466 86-1125 limits assumed): as the sequence (P02466 86-1125 limits assumed) above

Structure (SMILES): CC1(C)C(/C=C/C=C/C=C/C=C2\N(CCCCS(=O)(=O)O)c3ccc4ccccc4c3C2(C)C)=[N+](CCCCS(=O)(=O)[O-])c2ccc3ccccc3c21 [ICG, Indocyanine Green]
- destruction of human vitreous opacity (human vitreous opacities; 561 nm, 4.5 J/cm^2): the vitreous opacity could be destroyed
- destruction of human vitreous opacity (human vitreous opacities; 800 nm, 1.1 J/cm^2): the vitreous opacity could be destroyed
- toxicity on immortalized human retinal cells (MIO-M1) ([1]; 0.5 mg/ml): no clear toxicity
- toxicity / metabolic activity (MTT) ([1]; 24 hours, 0.1-1 mg/ml): rather acceptable toxicity up to a concentration of 0.5 mg/ml
- binding and destruction of type I collagen fibers (type I collagen fibers; 0.5 mg/ml): can bind and efficiently destroy type I collagen fibers
- location of VNBs during laser pulse on fiber (type I collagen fibers; nanosecond laser 4.5 J/cm^2): VNBs could be observed at the level of the fiber
- destruction of collagen fibers in vivo (collagen fibers [2]; IVIT 0.625 mg/mL, 800 nm, 1.9 J/cm^2): complete destruction of the collagen fibers
- laser pulses (scans) sufficient to completely destroy injected collagen fibers (collagen fibers [2]; IVIT 1.25 mg/mL, 800 nm, 1.9 J/cm^2, 3 days after ICG): 5 laser pulses
- pulses sufficient to destroy the IVIT injected fibers (collagen fibers [2]; all rabbits tested (n=3)): 3.3+/−1.5 pulses
- visibility of ICG 7 days after injection ([3]; 0.25 mg/ml IVIT): no longer visible at the level of the collagen fibers
- visibility of ICG 7 days after injection ([3]; 0.625 mg/ml IVIT): remained only visible at the level of the collagen fibers
- visibility of ICG 7 days after injection ([3]; 1.25 mg/ml IVIT): remained only visible at the level of the collagen fibers
- visibility of 'free' ICG (not bound to collagen) in vitreous cavity ([3]; 3 days post injection, all concentrations): no longer visible in the vitreous cavity
- visibility of injected ICG in vitreous ([3]; after one day, 0.25, 0.625 and 1.25 mg/ml IVIT): most of the injected ICG was no longer visible
- anterior segment 30 days post treatment ([4]; 30 days post treatment): normal corneas, eyelids, anterior chamber, conjunctiva and transparent lenses
- anterior segment, visual inspection [4, 6]: normal corneas, eyelids, anterior chamber, conjunctiva, and transparent lens
- posterior segment, color fundus imaging [4, 6]: no significant changes or injuries in the posterior segment structure
- retinal layers, B-scan OCT ([4]; post laser treatment): did not indicate structural disorganization in the retinal layers
- reaching and binding of collagen fibers in vivo (collagen fibers [5]; IVIT 1.25 mg/mL, 5 days after fiber injection): could reach and bind the collagen fibers
- lowest concentration at which binding to collagen fibers was still observed in vivo (collagen fibers [5]; intravitreal injection): 0.625 mg/mL

Structure (SMILES): Cc1cc(-c2ccc(/N=N/c3c(S(=O)(=O)O)cc4cc(S(=O)(=O)O)cc(N)c4c3O)c(C)c2)ccc1/N=N/c1c(S(=O)(=O)O)cc2cc(S(=O)(=O)O)cc(N)c2c1O [free TB, Trypan Blue]
- binding and destruction of type I collagen fibers (type I collagen fibers; 0.1 mg/ml as printed): can bind and efficiently destroy type I collagen fibers
